# From patent US5618836A, “[4-(1,2-epoxycyclohexanyl)but-3-en-1-ynyl]aromatic and heteroaromatic acids and derivatives having retinoid-like biological activity” (Allergan, priority 1995, dated 1997)
# Tested on: ornithine decarboxylase (ODC)
# Assay: Inhibition of TPA induction of ornithine decarboxylase (ODC) activity
# Type: in vivo
# Details: inhibition of TPA-induced ODC; assay essentially per Cancer Res: 1662-1670, 1975
# Description: The retinoid-like activity of these compounds is confirmed through the classic measure of retinoic acid activity involving the effects of retinoic acid on ornithine decarboxylase. The original work on the correlation between retinoic acid and decrease in cell proliferation was done by Verma & Boutwell, Cancer Research, 1977, 37,2196-2201. That reference discloses that ornithine decarboxylase (ODC) activity increased precedent to polyamine biosynthesis. It has been established elsewhere that increases in polyamine synthesis can be correlated or associated with cellular proliferation. Thus, if ODC activity could be inhibited, cell hyperproliferation could be modulated. Although all causes for ODC activity increases are unknown, it is known that 12-O-tetradecanoylphorbol-13-acetate (TPA) induces ODC activity.
row,Compound,IC80 [nM]
1,"CCOC(=O)c1ccc(C#C/C=C/C23OC2(C)CCCC3(C)C)s1 (racemic) [Compound 6, Ethyl(±)-5-[(3E)-4-(1,2-Epoxy-2,6,6-trimethylcyclohexanyl)but-3-en-1-ynyl)]-2thiophenecarboxylate]",16
2,"CC1(C)CCCC2(C)OC12/C=C/C#Cc1ccc(C(=O)O)cn1 (racemic) [Compound 4, (±)-6-[(3E)-4-(1,2-Epoxy-2,6,6-trimethylcyclohexan-yl)but-3-en-1-ynyl)]nicotinic acid]",21
3,"CC1(C)CCCC2(C)OC12/C=C/C#Cc1ccc(C(=O)O)cc1 (racemic) [Compound 1, (±)-4-[(3E)-4-(1,2-Epoxy-2,6,6-trimethylcyclohexan-yl)but-3-en-1-ynyl)]benzoic acid]",4.8
4,"CCOC(=O)c1ccc(C#C/C=C/C23OC2(C)CCCC3(C)C)nc1 (racemic) [Compound 5, Ethyl (±)-6-[(3E)-4-(1,2-Epoxy-2,6,6-trimethylcyclohexanyl)but-3-en-1-ynyl)nicotinate]",1.07
5,"CC1(C)CCCC2(C)OC12/C=C/C#Cc1ccc(C(=O)O)s1 (racemic) [Compound 3, (±)-5-[(3E)-4-(1,2-Epoxy-2,6,6-trimethylcyclohexan-yl)but-3-en-1-ynyl)]-2-thiophenecarboxylic acid]",22.3

# Tested on: ornithine decarboxylase (ODC)
# Assay: not given
# Details: in words; background statement; cited from earlier work
row,Compound,inhibition of induction of ODC activity by TPA
1,CC1=C(/C=C/C(C)=C/C=C/C(C)=C/C(=O)O)C(C)(C)CCC1 [Retinoic acid],inhibits this induction of ODC activity by TPA
